Assay: Surface tension isotherms
Assay type: physicochemical
Conditions: 22° C.
Description: Surface tension isotherms were measured for selected functionalized branched alcohols EXXAL™ 11-Glucose-3(EO )Linker (also referred to herein as “EXXAL™ 11-EO3-Glucoside”) and EXXAL™ 11-Galactose-3(EO)Linker, as well as comparative alkoxylated alcohol glycoside n-undecanol-glucose-3(EO)Linker (also referred to herein as “Undecanol-EO3-Glucoside”). The names, chemical structures, and weight average molecular weights of these functionalized branched alcohols are as follows:
Tables 7, 8 and 9 immediately below provide surface tension isotherms for the compounds 1, 2, and 3 measured at 22° C. Specifically, Table 7 provides surface tension data of n-undecanol-glucose-3(EO)Linker, Table 8 provides surface tension data of EXXAL™ 11-Gluscose-3(EO)Linker, and Table 9 provides surface tension data of EXXAL™ 11-Galactose-3(EO)Linker.

Surface Tension (γ) (Molarity 0.000125058 mol/L): 41.0 mN/m
Surface Tension (γ) (Molarity 0.000339945 mol/L): 34.5 mN/m
Surface Tension (γ) (Molarity 0.000924077 mol/L): 33.2 mN/m
Surface Tension (γ) (Molarity 0.001928806 mol/L): 33.1 mN/m
Surface Tension (γ) (Molarity 1.69248E−05 mol/L): 55.6 mN/m
Surface Tension (γ) (Molarity 2.29052E−06 mol/L): 66.4 mN/m
Surface Tension (γ) (Molarity 4.60064E−05 mol/L): 48.6 mN/m
Surface Tension (γ) (Molarity 6.22628E−06 mol/L): 61.5 mN/m
Surface Tension (γ) (Molarity 8.42635E−07 mol/L): 70.2 mN/m
Structure (SMILES): CCCCCCCCCCCOCCOCCOCCOC1OC(CO)C(O)C(O)C1O (stereo not drawn) [Compound 1, n-undecanol-glucose-3(EO)Linker]

Reference: patent US11453841B2, “Functionalized branched alcohols as non-ionic sugar surfactants” (ExxonMobil Technology and Engineering Company, priority 2019, dated 2022)
